Values of other authors as cited in patent US20110245283A1, “Methods for predicting the response to statins” (priority 2009, published 2011).
Like-named read-outs stand apart in the source and are kept apart here.

Conditions: cited from earlier work

Row | Molecule | Increased risk of toxicity or reduced statin effectiveness (with Atorva) | Severity of the interaction (with Atorva) | Increased risk of toxicity or reduced statin effectiveness (with Lova) | Severity of the interaction (with Lova) | Increased risk of toxicity or reduced statin effectiveness (with Simva) | Severity of the interaction (with Simva) | Increased risk of toxicity or reduced statin effectiveness (with Fluva) | Severity of the interaction (with Fluva) | Increased risk of toxicity or reduced statin effectiveness (with Prava) | Severity of the interaction (with Prava) | Severity of the interaction (with Rosuva) | Increased risk of toxicity or reduced statin effectiveness (with Rosuva)
1 | CC(=O)N1CCN(c2ccc(OCC3COC(Cn4ccnc4)(c4ccc(Cl)cc4Cl)O3)cc2)CC1 (centres unmarked) [Ketoconazole] | (+) | 3 | (+) | 3 | (+) | 3 | – | – | – | – | – | –
2 | CC(C)(C)NC(=O)[C@@H]1C[C@@H]2CCCC[C@@H]2CN1C[C@@H](O)[C@H](Cc1ccccc1)NC(=O)[C@H](CC(N)=O)NC(=O)c1ccc2ccccc2n1 [Saquinavir] | (+) | – | (+) | – | (+) | – | – | – | – | – | – | –
3 | COCC(=O)O[C@]1(CCN(C)CCCc2nc3ccccc3[nH]2)CCc2cc(F)ccc2[C@@H]1C(C)C [Mibefradil] | (+) | 3 | (+) | 4 | (+) | 4 | (+) | 1 | (+) | 1 | – | –
4 | Cholestyramine | – | – | – | – | – | – | – | 1 | – | 2 | – | –
5 | CC(C)CN(C[C@@H](O)[C@H](Cc1ccccc1)NC(=O)O[C@H]1CCOC1)S(=O)(=O)c1ccc(N)cc1 [Amprenavir] | (+) | 2 | (+) | 3 | (+) | 3 | – | – | (+) | 2 | – | –
6 | NC(=O)N1c2ccccc2C=Cc2ccccc21 [Carbamazepine] | – | – | – | – | – | 2 | – | – | – | – | – | –
7 | CC(C)OC(=O)C(C)(C)Oc1ccc(C(=O)c2ccc(Cl)cc2)cc1 [Fenofibrate] | (+) | – | (+) | – | (+) | – | (+) | – | (+) | – | – | –
8 | CCc1nn(CCCN2CCN(c3cccc(Cl)c3)CC2)c(=O)n1CCOc1ccccc1 [Nefazodone] | (+) | 3 | (+) | 3 | (+) | 3 | – | – | (+) | 2 | – | –
9 | COc1ccc2nc([S@@+]([O-])Cc3ncc(C)c(OC)c3C)[nH]c2c1 [Esomeprazole] | (+) | 3 | – | – | – | – | – | – | – | – | – | –
10 | COC(=O)[C@H](c1ccccc1Cl)N1CCc2sccc2C1 [Clopidogrel] | – | – | – | – | – | – | (+) | 2 | – | – | – | –
11 | CC(C)CN(C[C@@H](OP(=O)(O)O)[C@H](Cc1ccccc1)NC(=O)O[C@H]1CCOC1)S(=O)(=O)c1ccc(N)cc1 [Fosamprenavir] | (+) | 3 | (+) | 3 | (+) | 3 | – | – | – | – | – | –
12 | CCOC(=O)C(C)(C)Oc1ccc(Cl)cc1 [Clofibrate] | (+) | 3 | (+) | 3 | (+) | 3 | (+) | 3 | (+) | 3 | – | –
13 | COC(=O)N[C@H](C(=O)N[C@@H](Cc1ccccc1)[C@@H](O)CN(Cc1ccc(-c2ccccn2)cc1)NC(=O)[C@@H](NC(=O)OC)C(C)(C)C)C(C)(C)C [Atazanavir] | (+) | 3 | (+) | 3 | (+) | 3 | – | – | – | – | – | –
14 | Magaldrate | – | – | – | – | – | – | – | – | – | – | 2 | –
15 | CCC[C@@]1(CCc2ccccc2)CC(O)=C([C@H](CC)c2cccc(NS(=O)(=O)c3ccc(C(F)(F)F)cn3)c2)C(=O)O1 [Tipranavir] | – | – | (+) | 3 | (+) | 3 | – | – | – | – | – | –
16 | COc1ccc2[nH]c([S+]([O-])Cc3ncc(C)c(OC)c3C)nc2c1 (centres unmarked) [Omeprazole] | – | – | – | – | – | – | (+) | 1 | – | – | – | –

Row | Molecule | Increased risk of toxicity or reduced statin effectiveness (with Atorva) | Severity of the interaction (with Atorva) | Increased risk of toxicity or reduced statin effectiveness (with Lova) | Severity of the interaction (with Lova) | Increased risk of toxicity or reduced statin effectiveness (with Simva) | Severity of the interaction (with Simva) | Increased risk of toxicity or reduced statin effectiveness (with Fluva) | Severity of the interaction (with Fluva) | Increased risk of toxicity or reduced statin effectiveness (with Prava) | Severity of the interaction (with Prava) | Severity of the interaction (with Rosuva) | Increased risk of toxicity or reduced statin effectiveness (with Rosuva)
17 | CC(C)c1nc(CN(C)C(=O)N[C@H](C(=O)N[C@@H](Cc2ccccc2)C[C@H](O)[C@H](Cc2ccccc2)NC(=O)OCc2cncs2)C(C)C)cs1 [Rotinavir] | (+) | 2 | (+) | 3 | (+) | 3 | – | – | – | – | – | –
18 | OC(Cn1cncn1)(Cn1cncn1)c1ccc(F)cc1F [Fluconazole] | (+) | – | (+) | – | (+) | – | (+) | – | – | – | – | (+)
19 | Cc1c(C)c2c(c(C)c1O)CCC(C)(COc1ccc(CC3SC(=O)NC3=O)cc1)O2 (centres unmarked) [Troglitazone] | – | – | – | – | – | 1 | – | – | – | – | – | –
20 | CC(C)(Oc1ccc(CCNC(=O)c2ccc(Cl)cc2)cc1)C(=O)O [Bezafibrate] | (+) | 3 | (+) | 3 | (+) | 3 | (+) | 3 | (+) | 3 | – | –
21 | CC[C@H]1OC(=O)[C@H](C)C(=O)[C@H](C)[C@@H](O[C@@H]2O[C@H](C)C[C@H](N(C)C)[C@H]2O)[C@](C)(OC)C[C@@H](C)C(=O)[C@H](C)[C@H]2N(CCCCn3cnc(-c4cccnc4)c3)C(=O)O[C@]12C [Telithromycin] | (+) | 3 | (+) | 3 | (+) | 3 | – | – | – | – | – | –
22 | Colestipol | – | – | – | – | – | – | – | – | – | 2 | – | –
23 | C#C[C@]1(O)CC[C@H]2[C@@H]3CCC4=Cc5oncc5C[C@]4(C)[C@H]3CC[C@@]21C [Danazol] | – | – | – | – | (+) | – | – | – | – | – | – | –
24 | CCN(CC)CCS(=O)(=O)[C@@H]1CCN2C(=O)c3coc(n3)CC(=O)C[C@H](O)/C=C(C)/C=C/CNC(=O)/C=C/[C@@H](C)[C@@H](C(C)C)OC(=O)[C@@H]12 [Dalfopristin] | (+) | 3 | (+) | 3 | (+) | 3 | (+) | 3 | (+) | 3 | – | –
25 | O=C(O)c1cccnc1 [Niacin] | (+) | 3 | (+) | 3 | (+) | 3 | (+) | 2 | (+) | 2 | 3 | (+)
26 | Cc1ccc(C)c(OCCCC(C)(C)C(=O)O)c1 [Gemfibrozil] | (+) | 3 | (+) | 3 | (+) | 3 | (+) | 3 | (+) | 3 | 3 | (+)
27 | Cc1nc2n(c(=O)c1CCN1CCC(c3noc4cc(F)ccc34)CC1)CCCC2 [Risperidone] | – | – | – | – | (+) | 3 | – | – | – | – | – | –
28 | CO[C@H]1/C=C/O[C@@]2(C)Oc3c(C)c(O)c4c(O)c(c(/C=N/N5CCN(C)CC5)c(O)c4c3C2=O)NC(=O)/C(C)=C\C=C\[C@H](C)[C@H](O)[C@@H](C)[C@@H](O)[C@@H](C)[C@H](OC(C)=O)[C@@H]1C [Rifampin] | – | – | – | – | – | 2 | – | 1 | – | – | – | –
29 | CC[C@H]1OC(=O)[C@H](C)[C@@H](O[C@H]2C[C@@](C)(OC)[C@@H](O)[C@H](C)O2)[C@H](C)[C@@H](O[C@@H]2O[C@H](C)C[C@H](N(C)C)[C@H]2O)[C@](C)(OC)C[C@@H](C)C(=O)[C@H](C)[C@@H](O)[C@]1(C)O [Clarithromycin] | (+) | 3 | (+) | 3 | (+) | 3 | – | – | – | – | – | –
30 | Pectin | – | 2 | – | 2 | – | 2 | – | 2 | – | 2 | 2 | –
31 | CC(C)Nc1cccnc1N1CCN(C(=O)c2cc3cc(NS(C)(=O)=O)ccc3[nH]2)CC1 [Delavirdine] | (+) | 2 | – | – | – | – | – | – | – | – | – | –
